Tests used:
[1] = tested on: blue-stain fungi and molds; experiment: Activity against blue-stain fungi and molds on a stick test on vermiculite (paint film); set-up: key to Surface score of wooden sticks treated with paint formulation, C. cladosporioides / Surface score of wooden sticks treated with paint formulation, P. purpurogenum / Surface score of wooden sticks treated with paint formulation, P. violacea / Surface score of wooden sticks treated with paint formulation, R rubra (y) / Surface score of wooden sticks treated with paint formulation, S. chartarum / Surface score of wooden sticks treated with paint formulation, A. versicolor / Surface score of wooden sticks treated with paint formulation, A. pullulans: 0: No growth; Trace of growth of up to 1% coverage of the test inoculated area; 2: Growth covering between 1 and 10% of the inoculated test area; Growth covering between 10 and 30% of the inoculated test area; 4: Growth covering between 30 and 70% of the inoculated test area; 5: Growth covering more than 70t of the inoculated test area; conditions: 12 weeks on vermiculite; for Surface score of wooden sticks treated with paint formulation, R rubra (y): R rubra (yeast)
Experimental: Beech sticks (73×18×2 mm) Fagus sylvatica were painted, allowed to dry, and sterilized by γ-radiation (1.2 mRad). […] The coated sticks prepared above were then dipped in a spore suspension of pure culture of each fungus. Seven sticks each were placed in autoclaved Petri dishes (200 mm in diameter, 30 mm in height) containing 300 ml of vermiculite and 120 ml of water, and incubated for 12 weeks. The surfaces of the sticks were then examined for the growth of fungus and were evaluated according to the following scoring system: 0: No growth 1: […] 2: […] 3: […] 4. […] 5. Growth covering more than 70t of the inoculated test area.

[2] = tested on: mixed spore suspension: Aureobasidium pullulans, Aspergillus amstelodami, Ceratocystis pilifera, Cladosporium sp., Penicillium sp., Sclerophomas entoxylina …; experiment: Control of molds and sapstain fungi in mini-board test; set-up: key to Surface score of treated mini-boards, 3 week incubation, 1500 ppm / Surface score of treated mini-boards, 3 week incubation, 2500 ppm: 0: Free of fungal growth; 1: Traces of fungal growth; 2: Little fungal growth; 3: Moderate fungal growth; 4: Vigorous to maximum growth (all surfaces covered with fungal growth)
Excerpt: Representative compounds of this invention to be tested, were suspended in an aqueous solution containing 7.5% GENAPOL X 080™ (Hoechst-Celanese Corporation), and 20% propylene glycol monomethyl ether, to prepare the test solutions. […]
Deep frozen boards (300×50×10 mm) of freshly felled sapwood of Pinus sylvestrus (mini-boards) were thawed at room temperature. One half of each mini-board was immersed in a test solution for 20 seconds. The mini-boards were then sprayed with mixed spore suspension containing the following fungi:
Sclerophomas entoxylina, and
and stored in incubation boxes at 25° C. and at 100% relative humidity, for three weeks. For each compound tested, each concentration of test solution was applied to five different mini-boards.
The efficacy of the test compounds was determined by comparing the fungal growth on both the treated and untreated parts of the mini-boards.
The degree of infection was scored according to the following scale:
1=Traces of fungal growth
4=Vigorous to maximum growth (all surfaces covered with fungal growth)

[3] = tested on: mixed spore suspension of blue-stain fungus and molds; experiment: Activity against blue-stain fungi and molds in a mold cabinet test (BS3900: Part G6); set-up: key: 0: No growth; Trace of growth of up to 1% coverage of the test inoculated area; 2: Growth covering between 1 and 10% of the inoculated test area; Growth covering between 10 and 30% of the inoculated test area; 4: Growth covering between 30 and 70% of the inoculated test area; 5: Growth covering more than 70t of the inoculated test area
Experimental: Using the methods described in BS3900: Part G6: 1989, British Standard Methods of test for paints, “Assessment of resistance to fungal growth”, representative compounds of this invention were tested for activity against blue-stain fungus and molds in a mold cabinet test. In brief, sticks of Scots pine (Pinus sylvestris) measuring 75×100×10 mm, were painted, allowed to dry, and sterilized by […] (1.2 mRad). […] The sticks were then with each solution. The inoculation consisted of dipping the sticks in a mixed spore suspension, then placing them in a mold chamber and incubating them for 12 weeks. The surfaces were evaluated according the following score system: 0: No growth 1: […] 2: […] 3: […] 4. […] 5. Growth covering more than 70% of the inoculated test area.

| SMILES | Surface score of wooden sticks treated with paint formulation, A. pullulans ([1]; 0.15% a.i. in paint) | Surface score of wooden sticks treated with paint formulation, A. pullulans ([1]; 0.3% a.i. in paint) | Surface score of wooden sticks treated with paint formulation, A. versicolor ([1]; 0.15% a.i. in paint) | Surface score of wooden sticks treated with paint formulation, A. versicolor ([1]; 0.3% a.i. in paint) | Surface score of wooden sticks treated with paint formulation, C. cladosporioides ([1]; 0.15% a.i. in paint) | Surface score of wooden sticks treated with paint formulation, C. cladosporioides ([1]; 0.3% a.i. in paint) | Surface score of wooden sticks treated with paint formulation, P. purpurogenum ([1]; 0.15% a.i. in paint) | Surface score of wooden sticks treated with paint formulation, P. purpurogenum ([1]; 0.3% a.i. in paint) | Surface score of wooden sticks treated with paint formulation, P. violacea ([1]; 0.15% a.i. in paint) | Surface score of wooden sticks treated with paint formulation, P. violacea ([1]; 0.3% a.i. in paint) | Surface score of wooden sticks treated with paint formulation, R rubra (y) ([1]; 0.15% a.i. in paint) | Surface score of wooden sticks treated with paint formulation, R rubra (y) ([1]; 0.3% a.i. in paint) | Surface score of wooden sticks treated with paint formulation, S. chartarum ([1]; 0.15% a.i. in paint) | Surface score of wooden sticks treated with paint formulation, S. chartarum ([1]; 0.3% a.i. in paint) | Surface score of wooden sticks treated with paint formulation, U. atrum ([1]; 0.15% a.i. in paint) | Surface score of wooden sticks treated with paint formulation, U. atrum ([1]; 0.3% a.i. in paint) | Surface score of treated mini-boards, 3 week incubation, 1500 ppm [2] | Surface score of treated mini-boards, 6 week incubation, 1500 ppm [2] | Surface score of treated mini-boards, 3 week incubation, 2500 ppm [2] | Surface score of treated mini-boards, 6 week incubation, 2500 ppm [2] | other results |
| --- | --- | --- | --- | --- | --- | --- | --- | --- | --- | --- | --- | --- | --- | --- | --- | --- | --- | --- | --- | --- | --- |
| O=S1(=O)CCON=C1c1cc(Br)cs1 [Compound 42] | 2 (Growth covering between 1 and 10% of the inoculated test area) | 1 (Trace of growth of up to 1% coverage of the test inoculated area) | 2 (Growth covering between 1 and 10% of the inoculated test area) | 1 (Trace of growth of up to 1% coverage of the test inoculated area) | 2 (Growth covering between 1 and 10% of the inoculated test area) | 1 (Trace of growth of up to 1% coverage of the test inoculated area) | 4 (Growth covering between 30 and 70% of the inoculated test area) | 2 (Growth covering between 1 and 10% of the inoculated test area) | 4 (Growth covering between 30 and 70% of the inoculated test area) | 3 (Growth covering between 10 and 30% of the inoculated test area) | 3 (Growth covering between 10 and 30% of the inoculated test area) | 1 (Trace of growth of up to 1% coverage of the test inoculated area) | 3 (Growth covering between 10 and 30% of the inoculated test area) | 2 (Growth covering between 1 and 10% of the inoculated test area) | 5 (Growth covering more than 70t of the inoculated test area) | 3 (Growth covering between 10 and 30% of the inoculated test area) | 0 | 2.0 | 0 | 2.6 | Surface score in a paint formulation in a mold cabinet test, 6 weeks ([3]; 0.15% in water-based paint): 1.5; Surface score in a paint formulation in a mold cabinet test, 12 weeks ([3]; 0.15% in water-based paint): 3.5; Surface score in a paint formulation in a mold cabinet test, 6 weeks ([3]; 0.3% in water-based paint): 0.5; Surface score in a paint formulation in a mold cabinet test, 12 weeks ([3]; 0.3% in water-based paint): 3.0 |
| Cc1ccsc1C1=NOCCS1(=O)=O [Compound 37] | 3 (Growth covering between 10 and 30% of the inoculated test area) | 2 (Growth covering between 1 and 10% of the inoculated test area) | 2 (Growth covering between 1 and 10% of the inoculated test area) | 1 (Trace of growth of up to 1% coverage of the test inoculated area) | 3 (Growth covering between 10 and 30% of the inoculated test area) | 0 | 3 (Growth covering between 10 and 30% of the inoculated test area) | 1 (Trace of growth of up to 1% coverage of the test inoculated area) | 5 (Growth covering more than 70t of the inoculated test area) | 4 (Growth covering between 30 and 70% of the inoculated test area) | 4 (Growth covering between 30 and 70% of the inoculated test area) | 3 (Growth covering between 10 and 30% of the inoculated test area) | 1 (Trace of growth of up to 1% coverage of the test inoculated area) | 0 | 4 (Growth covering between 30 and 70% of the inoculated test area) | 3 (Growth covering between 10 and 30% of the inoculated test area) | 0 | 0.8 | 0 | 0.4 | Surface score in a paint formulation in a mold cabinet test, 6 weeks ([3]; 0.15% in water-based paint): 4.0; Surface score in a paint formulation in a mold cabinet test, 12 weeks ([3]; 0.15% in water-based paint): 5.0; Surface score in a paint formulation in a mold cabinet test, 6 weeks ([3]; 0.3% in water-based paint): 0; Surface score in a paint formulation in a mold cabinet test, 12 weeks ([3]; 0.3% in water-based paint): 0 |

Source: patent publication US6372297B1, “Wood preservative oxathiazines” (Uniroyal Chemical Company, Inc., priority 1993, dated 2002)
